# Key:
# [1] = system: human Flu-activated primary PBMC; experiment: cells; format: cell-based; conditions: read-out: EC50
# HIV-stimulated pDC [2] = experiment: TRAIL relocalization to the membrane of HIV-stimulated pDC (3D microscopy); format: cell-based, human
# Protocol: (§1) Cells were then incubated with anti-CXCR4 antibody (Biolegend, San Diego, Calif.) in saturation buffer PBS-BSA 0.5% for membrane staining or in permeabilizing buffer containing 1% saponin with monoclonal antibody anti-TRAIL (Biolegend, San Diego, Calif., USA). […] Nucleus was stained using DAPI (Molecular Probes, Paisley, UK). Slides were mounted with Fluoromount-G (eBioscience, CA, USA) and scanned with a Nikon Eclipse 90i Upright microscope (Nikon Instruments Europe, Badhoevedorp, The Netherlands) using a 100× Plan Apo VC piezo objective (NA 1.4) and Chroma bloc filters (ET-DAPI, ET-GFP) and were subsequently deconvoluted with a Meinel algorithm and 8 iterations and analyzed using Metamorph® (MDS Analytical Technologies, Winnersh, UK). TRAIL/DAPI/Overlay/Confocal plane: Representative 2D focal plan. Overlay with bright: Bright. Reconvolution overlays: 2D projections of the maximum intensity pixels along the Z-axis.
# 7 pictures were taken from each slide for each Z section framing the nucleus. Quantification of the colocalization in the cytoplasm of purified pDC using Mander's Coefficient was obtained after analyze by JACoP pluging in ImageJ.
# CXCR4 [3] = target: T1, CXCR4 (Homo sapiens, UniProt P61073)
# HIV-stimulated pDC [4] = experiment: Activation markers and cytokine mRNA in HIV-stimulated pDC (RT-qPCR, flow cytometry); format: cell-based, human
# flu-exposed human PBMC = format: cell-based; conditions: cells pre-treated before Flu exposure, human PBMC
# [5] = system: pristane-induced SLE in Balb/c mice; experiment: Pristane-induced systemic lupus erythematosus (SLE) model in Balb/c mice; format: in vivo, mouse; conditions: 3, 10, 30 mg/kg IP QD
# Protocol: Receive and quarantine (SOP 560) 70 female Balb/C (20-25 g) mice and house in filter-topped cages supplied with autoclaved bedding.
# The animals are weighed, ear tagged for individual identification and randomly assigned to 8 treatment groups of 8 animals each and two groups of 3 animals (for pre-tolerance at 30 mg/kg of survival).
# The test items compounds clobenpropit (CB) and IT1t are stored at 4° C.
# Mouse weights are recorded twice a week, and daily observations for clinical signs.
# Collected sera are stored at −80° C. for measurements of autoantibody on weeks 4, 8 and 10. (Predose will kept at −80° C. for potential use). Anti-dsDNA level is a standard screening readout for identifying efficacy of test compounds in a SLE model.
# Measurements: weeks 4, 8, 10: (1) autoantibody (anti-dsDNA), collagen and cytokines TNFα, IL-6 and TRAIL by ELISA and (2) ANA antibody by IFA.
# [6] = system: HIV or LPS stimulated monocytes; experiment: IFN-γ mRNA in monocytes stimulated with HIV or LPS (RT-qPCR); format: cell-based; conditions: RT-qPCR normalized to RPL13A
# Protocol: Data shown are representative of two independent experiments.
# Monocytes were pre-incubated with clobenpropit (CB), IT1t or chloroquine before being activated by HIV and LPS. IFN-γ levels were measured by RT-qPCR and normalized to RPL13A mRNA expression.
# [7] = system: NK cells activated by K562 cells; experiment: IFN-γ, TNF-α and CD107a expression by NK cells activated by K562 cells (flow cytometry); format: cell-based; conditions: treated 1 hour, then activated by K562 cells
# HIV-stimulated pDC [8] = experiment: IFN-α / type I IFN production by HIV-stimulated purified pDC (ELISA); format: cell-based, human
# CXCR4 [9] = target: T1, CXCR4; experiment: CXCR4 internalization and co-localization in pDC (microscopy); format: cell-based; conditions: cells incubated with CB, compared to untreated cells
# Protocol: as §1, with “Reconvolution overlays: 2D projections of the maximum intensity pixels along the Z-axis.” left out
# In other cases, cells were cultured overnight in media alone then were washed in ice-cold PBS-BSA 0.2% and stained with CXCR4 antibody (R&D Systems) for 1 hour at 4° C. […] Data are expressed as the mean percentage ±SEM mean channel fluorescence intensity (MFI) values for residual surface expression and intracellular staining. […]
# 7 pictures were taken from each slide for each Z section framing the nucleus. Quantification of the colocalization in the cytoplasm of purified pDC using Mander's Coefficient was obtained after analyze by JACoP pluging in ImageJ. […]
# H4R = H4R (Homo sapiens, UniProt Q9H3N8); format: cell-based
# [10] = Solubility of test compounds
# T1 sequence (P61073 whole entry): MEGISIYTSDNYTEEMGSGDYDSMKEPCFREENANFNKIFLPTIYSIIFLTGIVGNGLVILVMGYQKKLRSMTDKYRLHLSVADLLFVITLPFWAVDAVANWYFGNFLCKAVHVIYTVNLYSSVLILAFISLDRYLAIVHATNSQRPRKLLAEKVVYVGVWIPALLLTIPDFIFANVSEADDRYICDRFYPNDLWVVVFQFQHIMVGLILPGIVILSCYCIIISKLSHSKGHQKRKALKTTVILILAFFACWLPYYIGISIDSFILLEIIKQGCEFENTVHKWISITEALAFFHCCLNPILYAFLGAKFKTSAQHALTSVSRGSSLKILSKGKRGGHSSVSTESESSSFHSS
# H4R, sequence (Q9H3N8 whole entry): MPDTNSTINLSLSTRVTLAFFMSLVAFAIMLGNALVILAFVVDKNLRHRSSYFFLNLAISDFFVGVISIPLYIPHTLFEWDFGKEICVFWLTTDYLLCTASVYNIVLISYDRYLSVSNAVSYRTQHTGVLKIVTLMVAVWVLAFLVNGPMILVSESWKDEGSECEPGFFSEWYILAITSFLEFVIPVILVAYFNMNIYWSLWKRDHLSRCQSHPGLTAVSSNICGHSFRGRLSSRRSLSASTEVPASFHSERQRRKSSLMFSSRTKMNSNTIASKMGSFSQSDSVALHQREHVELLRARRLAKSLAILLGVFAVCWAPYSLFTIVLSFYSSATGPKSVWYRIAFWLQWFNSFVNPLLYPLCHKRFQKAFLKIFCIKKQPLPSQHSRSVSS
smiles,measurement,setting,value
"NC(=NCc1ccc(Cl)cc1)SCCCc1cnc[nH]1 [Clobenpropit, clobenpropit]",EC50,[1],24 ± 2 µM
same,CC50,in vitro,417 ± 6 µM
same,TRAIL localization to the cell membrane in HIV-stimulated pDC,HIV-stimulated pDC [2],significantly inhibited
same,effect of CXCR4 silencing on the inhibitory effect,CXCR4 [3]; pDC activated by a CCR5-tropic (R5) HIV-1 and Flu,blocked
same,effect of CXCR4 gene silencing on the inhibitory effect on type I IFN and TRAIL,CXCR4 [3]; pDC stimulated by CXCR4-tropic HIV-1,suppressed
same,iNOS or IL-15 gene expression,"HIV-stimulated pDC [4]; HIV-1-stimulated pDC, RT-qPCR",neither CB nor FFN-511 affected
same,"transcription of virus-induced genes (TRAIL, IFNs, IL6, IL8, IL10, CXCL10, ISG56) induced in pDC by HIV-1","HIV-stimulated pDC [4]; RT-qPCR profiling, normalized to RPL13A",dramatically inhibited
same,IFN-α/β and IFN-λ2/3 mRNA levels,flu-exposed human PBMC,significantly reduced
same,symptoms of pristane-Induced Systemic Lupus Erythematosus,[5],reduce symptoms
same,body weight during the study,[5]; compared to dose started date,no loss of body weight
same,ds-DNA level,[5]; compared to group 1 (vehicle),inhibition
same,Therapeutic index (Ratio TC50/EC50),human primary PBMC,17.4
same,IFN-γ expression by HIV or LPS stimulated monocytes,[6],inhibit
same,"IFN-γ, TNF-α and CD107a expression by NK cells",[7],decrease
same,IFN-α production kinetics by HIV-stimulated pDC,HIV-stimulated pDC [8]; after 9 h of incubation,inhibited
same,inhibitory effect on pDC activation / IFN-α production by HIV-1,"HIV-stimulated pDC [8]; purified pDC, 10 μM",stronger inhibitory effect than histamine
same,reduction of levels of IFN-α secreted following HIV stimulation,"HIV-stimulated pDC [8]; purified pDC, 10 μM, ELISA",approximately 90%
same,intracellular / extracellular CXCR4 in pDC,CXCR4 [9],most of CXCR4 was detected intracellularly
same,"effect of H4R knock down on inhibitory activity on IFN-α, IFN-β and TRAIL productions by HIV-stimulated pDC",H4R,did not block
same,solubility,"[10]; PBS, aqueous buffer",> 50 mg/mL
same,solubility,[10]; water,> 50 mg/mL

# From US20190175557A1, “COMPOUNDS USEFUL FOR DECREASING INTERFERON LEVEL” (priority 2016, published 2019)
